Data as given in publication PMC5218480 (PLoS ONE, 2017).

Test system: MV-4-11 cells
Test: Gene expression microarray analysis (Affymetrix PrimeView) and GSEA
Type: cell-based, human
Set-up: RFU PODN (11730768_x_at) / Fold change /veh PODN (11730768_x_at) / RFU LINC00158 (11744669_a_at) / Fold change /veh LINC00158 (11744669_a_at) / RFU DUSP10 (11751237_a_at) / Fold change /veh DUSP10 (11751237_a_at) / RFU ID3 (11757404_x_at) / Fold change /veh ID3 (11757404_x_at) / RFU PLEKHG5 (11737974_s_at) / Fold change /veh PLEKHG5 (11737974_s_at) / RFU LRRC4B (11730491_at) / Fold change /veh LRRC4B (11730491_at) / RFU GIMAP4 (11747438_a_at) / Fold change /veh GIMAP4 (11747438_a_at) / RFU KRT8 (11758183_x_at) / Fold change /veh KRT8 (11758183_x_at) / RFU CNN1 (11734310_a_at) / Fold change /veh CNN1 (11734310_a_at) / RFU VPS37D (11726825_at) / Fold change /veh VPS37D (11726825_at) / RFU C10orf10 (11716522_x_at) / Fold change /veh C10orf10 (11716522_x_at) / RFU KIR2DL2 /// KIR2DL4 /// KIR2DL5A /// KIR2DL5B /// KIR2DS1 /// KIR2DS2 /// KIR2DS3 /// KIR2DS4 /// KIR3DL3 /// KIR3DL3 /// KIR3DS1 (11738374_at) / Fold change /veh KIR2DL2 /// KIR2DL4 /// KIR2DL5A /// KIR2DL5B /// KIR2DS1 /// KIR2DS2 /// KIR2DS3 /// KIR2DS4 /// KIR3DL3 /// KIR3DL3 /// KIR3DS1 (11738374_at) / RFU C1QL1 (11718748_at) / Fold change /veh C1QL1 (11718748_at) / RFU TMPRSS4 (11747572_a_at) / Fold change /veh TMPRSS4 (11747572_a_at) / RFU HAMP (11756126_x_at) / Fold change /veh HAMP (11756126_x_at) / RFU RNFT2 (11725882_a_at) / Fold change /veh RNFT2 (11725882_a_at) / RFU NR4A2 (11747474_a_at) / Fold change /veh NR4A2 (11747474_a_at) / RFU ABCC12 (11746883_a_at) / Fold change /veh ABCC12 (11746883_a_at) / RFU TMEM136 (11760407_x_at) / Fold change /veh TMEM136 (11760407_x_at) / RFU CLDN22 /// WWC2 (11732394_at) / Fold change /veh CLDN22 /// WWC2 (11732394_at) / RFU HLA-DPB1 (11760878_x_at) / Fold change /veh HLA-DPB1 (11760878_x_at) / RFU SPINT1 (11716480_a_at) / Fold change /veh SPINT1 (11716480_a_at) / RFU GAP43 (11754022_s_at) / Fold change /veh GAP43 (11754022_s_at) / RFU A4GNT (11735810_at) / Fold change /veh A4GNT (11735810_at) / RFU PRB3 (11715151_x_at) / Fold change /veh PRB3 (11715151_x_at) / RFU TUBB4B (11761932_at) / Fold change /veh TUBB4B (11761932_at) / RFU CAPN14 (11732068_a_at) / Fold change /veh CAPN14 (11732068_a_at) / RFU TMCC2 (11721928_a_at) / Fold change /veh TMCC2 (11721928_a_at) / RFU IRGQ (11745062_a_at) / Fold change /veh IRGQ (11745062_a_at) / RFU FAM174B (11720279_a_at) / Fold change /veh FAM174B (11720279_a_at) / RFU TMPRSS4 (11748680_a_at) / Fold change /veh TMPRSS4 (11748680_a_at) / RFU FAM212B (11763350_a_at) / Fold change /veh FAM212B (11763350_a_at) / RFU PLEKHG5 (11743358_a_at) / Fold change /veh PLEKHG5 (11743358_a_at) / RFU ZSCAN30 (11745921_a_at) / Fold change /veh ZSCAN30 (11745921_a_at) / RFU CMKLR1 (11741424_a_at) / Fold change /veh CMKLR1 (11741424_a_at) / RFU LOC101060620 /// MAPK8IP1 (11723275_at) / Fold change /veh LOC101060620 /// MAPK8IP1 (11723275_at) / RFU SPTSSB (11747773_x_at) / Fold change /veh SPTSSB (11747773_x_at) / RFU PRSS12 (11739890_at) / Fold change /veh PRSS12 (11739890_at) / RFU BIN1 (11741810_x_at) / Fold change /veh BIN1 (11741810_x_at) / RFU WNT11 (11732464_a_at) / Fold change /veh WNT11 (11732464_a_at) / RFU C10orf10 (11716521_a_at) / Fold change /veh C10orf10 (11716521_a_at) / RFU C5orf56 (11738089_at) / Fold change /veh C5orf56 (11738089_at) / RFU CYB561 (11721691_x_at) / Fold change /veh CYB561 (11721691_x_at) / RFU ANKRD19P (11752326_a_at) / Fold change /veh ANKRD19P (11752326_a_at) / RFU OR2T12 /// OR2T33 /// OR2T8 (11738714_s_at) / Fold change /veh OR2T12 /// OR2T33 /// OR2T8 (11738714_s_at) / RFU VCAN (11748164_a_at) / Fold change /veh VCAN (11748164_a_at) / RFU JSRP1 (11732532_at) / Fold change /veh JSRP1 (11732532_at) / RFU KRTAP10-11 (11738290_x_at) / Fold change /veh KRTAP10-11 (11738290_x_at) / RFU MYO3A (11730013_a_at) / Fold change /veh MYO3A (11730013_a_at) / RFU EBF3 (11725865_a_at) / Fold change /veh EBF3 (11725865_a_at) / RFU CAMK2N1 (11719241_x_at) / Fold change /veh CAMK2N1 (11719241_x_at) / RFU C5orf56 (11738088_a_at) / Fold change /veh C5orf56 (11738088_a_at) / RFU OLFML3 (11715873_a_at) / Fold change /veh OLFML3 (11715873_a_at) / RFU LOC100653217 /// NTM (11731650_a_at) / Fold change /veh LOC100653217 /// NTM (11731650_a_at) / RFU MAPK11 (11762145_a_at) / Fold change /veh MAPK11 (11762145_a_at) / RFU FIZ1 (11724087_x_at) / Fold change /veh FIZ1 (11724087_x_at) / RFU OASL (11726364_x_at) / Fold change /veh OASL (11726364_x_at) / RFU SOX15 (11748057_x_at) / Fold change /veh SOX15 (11748057_x_at) / RFU CD79A (11719716_a_at) / Fold change /veh CD79A (11719716_a_at) / RFU HIST1H1D (11736915_at) / Fold change /veh HIST1H1D (11736915_at) / RFU CASKIN2 (11723855_a_at) / Fold change /veh CASKIN2 (11723855_a_at) / RFU LOC730098 (11760151_x_at) / Fold change /veh LOC730098 (11760151_x_at) / RFU OR4N2 (11742367_at) / Fold change /veh OR4N2 (11742367_at) / RFU PRRT2 (11749266_a_at) / Fold change /veh PRRT2 (11749266_a_at) / RFU SNX32 (11753110_a_at) / Fold change /veh SNX32 (11753110_a_at) / RFU CDHR5 (11726645_a_at) / Fold change /veh CDHR5 (11726645_a_at) / RFU RCAN1 (11760418_a_at) / Fold change /veh RCAN1 (11760418_a_at) / RFU FAM167A (11723789_a_at) / Fold change /veh FAM167A (11723789_a_at) / RFU FAM26E (11764081_at) / Fold change /veh FAM26E (11764081_at) / RFU ISYNA1 (11749810_s_at) / Fold change /veh ISYNA1 (11749810_s_at) / RFU ACY1 (11761880_at) / Fold change /veh ACY1 (11761880_at) / RFU 11764098_at / Fold change /veh 11764098_at / RFU SAMD14 (11745864_x_at) / Fold change /veh SAMD14 (11745864_x_at) / RFU NPB (11741838_a_at) / Fold change /veh NPB (11741838_a_at) / RFU TMPRSS6 (11731388_a_at) / Fold change /veh TMPRSS6 (11731388_a_at) / RFU KRTAP10-2 (11738614_at) / Fold change /veh KRTAP10-2 (11738614_at) / RFU ARHGAP8 /// PRR5-ARHGAP8 (11727945_x_at) / Fold change /veh ARHGAP8 /// PRR5-ARHGAP8 (11727945_x_at) / RFU KRTAP5-7 /// NADSYN1 (11734609_at) / Fold change /veh KRTAP5-7 /// NADSYN1 (11734609_at) / RFU RASL12 (11751679_a_at) / Fold change /veh RASL12 (11751679_a_at) / RFU CDKN2B (11736163_a_at) / Fold change /veh CDKN2B (11736163_a_at) / RFU PRF1 (11729649_at) / Fold change /veh PRF1 (11729649_at) / RFU, ZNF638 /// ZNF638-IT1 / Fold change vs veh, ZNF638 /// ZNF638-IT1 / RFU, PANK3 / Fold change vs veh, PANK3 / RFU, SH3YL1 / Fold change vs veh, SH3YL1 / RFU, ZEB2 / Fold change vs veh, ZEB2 / RFU, NRIP1 / Fold change vs veh, NRIP1 / RFU, PTTG1IP / Fold change vs veh, PTTG1IP / RFU, CAPN2 / Fold change vs veh, CAPN2 / RFU, MED14 / Fold change vs veh, MED14 / RFU, SNORA58 / Fold change vs veh, SNORA58 / RFU, C1orf63 / Fold change vs veh, C1orf63 / RFU, LRRFIP1 / Fold change vs veh, LRRFIP1 / RFU, NDUFAF7 / Fold change vs veh, NDUFAF7 / RFU, SLC12A2 / Fold change vs veh, SLC12A2 / RFU, IBTK / Fold change vs veh, IBTK / RFU, ESF1 / Fold change vs veh, ESF1 / Fold change vs veh, TMEM50B / RFU, TAOK1 / Fold change vs veh, TAOK1 / RFU, ACBD3 / Fold change vs veh, ACBD3 / RFU, TMA16 / Fold change vs veh, TMA16 / RFU, RWDD3 / Fold change vs veh, RWDD3 / RFU, BCAT1 / Fold change vs veh, BCAT1 / RFU, EDEM3 / Fold change vs veh, EDEM3 / RFU, TMEM33 / Fold change vs veh, TMEM33 / RFU, WDR75 / Fold change vs veh, WDR75 / RFU, AHCTF1 / Fold change vs veh, AHCTF1 / RFU, TFRC / Fold change vs veh, TFRC / RFU, ZDHHC17 / Fold change vs veh, ZDHHC17 / RFU, NOM1 / Fold change vs veh, NOM1 / RFU, ARL8B / Fold change vs veh, ARL8B / RFU, ZBTB11 / Fold change vs veh, ZBTB11 / RFU, TAMM41 / Fold change vs veh, TAMM41 / RFU, KIAA1704 /// LOC100996395 / Fold change vs veh, KIAA1704 /// LOC100996395 / RFU, ING1 / Fold change vs veh, ING1 / RFU, TRMT61B / Fold change vs veh, TRMT61B / RFU, FUBP3 / Fold change vs veh, FUBP3 / RFU, TP53 / Fold change vs veh, TP53 / RFU, TNKS2 / Fold change vs veh, TNKS2 / RFU, ZFP14 / Fold change vs veh, ZFP14 / RFU, ACTR2 / Fold change vs veh, ACTR2 / RFU, PPP3R1 / Fold change vs veh, PPP3R1 / RFU, PIK3R1 / Fold change vs veh, PIK3R1 / RFU, HNRNPA1 / Fold change vs veh, HNRNPA1 / RFU, RNF170 / Fold change vs veh, RNF170 / RFU, ZNF28 / Fold change vs veh, ZNF28 / RFU, RNGTT / Fold change vs veh, RNGTT / RFU, OGT / Fold change vs veh, OGT / RFU, BRD1 / Fold change vs veh, BRD1 / RFU, MARS / Fold change vs veh, MARS / RFU, ZNF655 / Fold change vs veh, ZNF655 / RFU, FAHD1 / Fold change vs veh, FAHD1 / RFU, BDP1 / Fold change vs veh, BDP1 / RFU, LRRCC1 / Fold change vs veh, LRRCC1 / RFU, ARID1A / Fold change vs veh, ARID1A / RFU, ZNF146 / Fold change vs veh, ZNF146 / RFU, ZNF330 / Fold change vs veh, ZNF330 / RFU, GPN3 / Fold change vs veh, GPN3 / RFU, C9orf123 / Fold change vs veh, C9orf123 / RFU, N4BP2L2 / Fold change vs veh, N4BP2L2 / RFU, ARFIP1 / Fold change vs veh, ARFIP1 / RFU, FAM179B / Fold change vs veh, FAM179B / RFU, BCL10 / Fold change vs veh, BCL10 / RFU, UHRF1BP1L / Fold change vs veh, UHRF1BP1L / RFU, BET1 / Fold change vs veh, BET1 / RFU, CNOT2 / Fold change vs veh, CNOT2 / RFU, ZNF268 / Fold change vs veh, ZNF268 / Fold change vs veh, ZNF507 / RFU, DGCR2 / Fold change vs veh, DGCR2 / RFU, WDSUB1 / Fold change vs veh, WDSUB1 / Fold change vs veh, HSP90B1 /// MIR3652 / RFU, ADSS / Fold change vs veh, ADSS / RFU, GK / Fold change vs veh, GK / RFU, ZNF148 / Fold change vs veh, ZNF148 / RFU, TAF9 / Fold change vs veh, TAF9 / RFU, SLC1A5 / Fold change vs veh, SLC1A5 / RFU, SLMO2 / Fold change vs veh, SLMO2 / RFU, ABCC4 / Fold change vs veh, ABCC4 / RFU, LOC101060439 /// RAP1B / Fold change vs veh, LOC101060439 /// RAP1B / RFU, RFX7 / Fold change vs veh, RFX7 / RFU, GTPBP10 / Fold change vs veh, GTPBP10 / RFU, CNEP1R1 / Fold change vs veh, CNEP1R1 / RFU, BIVM-ERCC5 /// ERCC5 / Fold change vs veh, BIVM-ERCC5 /// ERCC5 / RFU, ILF3 / Fold change vs veh, ILF3 / RFU 11762660_at / Fold change /veh 11762660_at / RFU VCAN (11757783_s_at) / Fold change /veh VCAN (11757783_s_at) / RFU DDX43 (11728927_at) / Fold change /veh DDX43 (11728927_at) / RFU KRT8 (11758188_x_at) / Fold change /veh KRT8 (11758188_x_at) / RFU NKD1 (11759106_at) / Fold change /veh NKD1 (11759106_at) / RFU SRD5A1 (11742802_a_at) / Fold change /veh SRD5A1 (11742802_a_at) / RFU TPSAB1 /// TPSB2 (11721975_s_at) / Fold change /veh TPSAB1 /// TPSB2 (11721975_s_at) / RFU GSTM3 (11746129_a_at) / Fold change /veh GSTM3 (11746129_a_at) / RFU IL23R (11737362_x_at) / Fold change /veh IL23R (11737362_x_at) / RFU TMEM51 (11727254_a_at) / Fold change /veh TMEM51 (11727254_a_at) / RFU PIWIL2 (11732686_x_at) / Fold change /veh PIWIL2 (11732686_x_at) / RFU ORM1 (11744905_x_at) / Fold change /veh ORM1 (11744905_x_at) / RFU CCDC152 (11743942_at) / Fold change /veh CCDC152 (11743942_at) / RFU ECM1 (11717891_a_at) / Fold change /veh ECM1 (11717891_a_at) / RFU IL23R (11748794_a_at) / Fold change /veh IL23R (11748794_a_at) / RFU TNFAIP8L3 (11732012_x_at) / Fold change /veh TNFAIP8L3 (11732012_x_at) / RFU MBOAT4 (11741988_at) / Fold change /veh MBOAT4 (11741988_at) / RFU 11764193_at / Fold change /veh 11764193_at / RFU TMEM53 (11763286_at) / Fold change /veh TMEM53 (11763286_at) / RFU MAGEB2 (11727129_at) / Fold change /veh MAGEB2 (11727129_at) / RFU TMEM200A (11744735_a_at) / Fold change /veh TMEM200A (11744735_a_at) / RFU CCDC152 (11751479_a_at) / Fold change /veh CCDC152 (11751479_a_at) / RFU FAM211A (11726209_a_at) / Fold change /veh FAM211A (11726209_a_at) / RFU RGS16 (11746705_a_at) / Fold change /veh RGS16 (11746705_a_at) / RFU VCAN (11755009_s_at) / Fold change /veh VCAN (11755009_s_at) / RFU RHOB (11743442_s_at) / Fold change /veh RHOB (11743442_s_at) / RFU RGS16 (11720943_a_at) / Fold change /veh RGS16 (11720943_a_at) / RFU RGS16 (11720944_at) / Fold change /veh RGS16 (11720944_at) / RFU, VPS4B / Fold change vs veh, VPS4B / RFU, CREB1 / Fold change vs veh, CREB1 / RFU, DNAJC13 / Fold change vs veh, DNAJC13 / RFU, GNAQ / Fold change vs veh, GNAQ / RFU, CDK5R1 / Fold change vs veh, CDK5R1 / RFU, ZRANB3 / Fold change vs veh, ZRANB3 / RFU, CUL4A / Fold change vs veh, CUL4A / RFU, CCNY / Fold change vs veh, CCNY / RFU, UFL1 / Fold change vs veh, UFL1 / RFU, COG3 / Fold change vs veh, COG3 / RFU, DIAPH2 / Fold change vs veh, DIAPH2 / RFU, SKA2 / Fold change vs veh, SKA2 / RFU, AFF3 / Fold change vs veh, AFF3 / RFU, LMF1 / Fold change vs veh, LMF1 / RFU, IPO11 / Fold change vs veh, IPO11 / RFU, DFFB / Fold change vs veh, DFFB / RFU, FOXP1 / Fold change vs veh, FOXP1 / RFU, CARD8 / Fold change vs veh, CARD8 / RFU, STRN3 / Fold change vs veh, STRN3 / RFU, ADK / Fold change vs veh, ADK / RFU, RASSF2 / Fold change vs veh, RASSF2 / RFU, WIPF1 / Fold change vs veh, WIPF1 / RFU, LARP1B / Fold change vs veh, LARP1B / RFU, RASA1 / Fold change vs veh, RASA1 / RFU, RB1 / Fold change vs veh, RB1 / RFU, PPFIA1 / Fold change vs veh, PPFIA1 / RFU, MAT2A / Fold change vs veh, MAT2A / RFU, CCT5 / Fold change vs veh, CCT5 / RFU, WDR92 / Fold change vs veh, WDR92 / RFU, CUX1 / Fold change vs veh, CUX1 / RFU, TTC7A / Fold change vs veh, TTC7A / RFU, TMEM135 / Fold change vs veh, TMEM135 / RFU, DEPTOR / Fold change vs veh, DEPTOR / RFU, CPM / Fold change vs veh, CPM / RFU, DNAJB6 / Fold change vs veh, DNAJB6 / RFU, CACNA2D3 / Fold change vs veh, CACNA2D3 / RFU, DTX4 / Fold change vs veh, DTX4 / RFU, TFCP2 / Fold change vs veh, TFCP2 / RFU, GMCL1 /// GMCL1P1 / Fold change vs veh, GMCL1 /// GMCL1P1 / RFU, AEBP2 / Fold change vs veh, AEBP2 / RFU, SNHG1 /// SNORD22 /// SNORD25 /// SNORD26 /// SNORD27 /// SNORD28 /// SNORD29 /// SNORD31 / Fold change vs veh, SNHG1 /// SNORD22 /// SNORD25 /// SNORD26 /// SNORD27 /// SNORD28 /// SNORD29 /// SNORD31 / Fold change (Aza/veh), C12orf56 (ProbeSet 11735607_a_at) / Fold change (ACY-1035/veh), C12orf56 (ProbeSet 11735607_a_at) / Fold change (Aza/veh), FGFR1OP (ProbeSet 11751329_s_at) / Fold change (ACY-1035/veh), FGFR1OP (ProbeSet 11751329_s_at) / Fold change (Aza/veh), VPS36 (ProbeSet 11739960_a_at) / Fold change (ACY-1035/veh), VPS36 (ProbeSet 11739960_a_at) / RFU SYPL1 (11715823_x_at) / Fold change /veh SYPL1 (11715823_x_at) / RFU IGFBP7 (11715501_s_at) / Fold change /veh IGFBP7 (11715501_s_at) / RFU REEP3 (11722064_at) / Fold change /veh REEP3 (11722064_at) / RFU IGLL1 (11728026_x_at) / Fold change /veh IGLL1 (11728026_x_at): dose or concentration left out as unconfirmed
Conditions: MV-4-11 cells, 48 hours

Compound: Nc1ncn([C@@H]2O[C@H](CO)[C@@H](O)[C@H]2O)c(=O)n1 [azacitidine]
- RFU PRB3 (11715151_x_at): 8.00 RFU
